The results in this text go back to patent US9029376B2, “Small molecule inhibitors for the treatment or prevention of dengue virus infection” (Siga Technologies, Inc., priority 2008, dated 2015).

Bounds are passed on as bounds.

The first test concerns Dengue-2 (Strain New Guinea C). The test can be described thus: Dengue-2 viral yield assay in Vero cells. As to conditions: Dengue virus, Vero, 48 h, read-out: Activity (anti-dengue 2 viral activity, EC50). The test is classed as cell-based. Here is the method: Compounds that were active in the primary screen were tested for activity in viral yield assays. […] Vero cells in 12-well plates were infected with dengue-2 virus at a multiplicity of infection (MOI) of 0.1, treated with compound (or DMSO as a control), incubated at 37° C., harvested 48 hours post infection and titered on Vero cells as described above. The EC50 was calculated through ExcelFit. Those compounds with activity below 1 μM are indicated with “A”, those with activity between 1 and 10 μM are indicated with “B”, and those with activity between 10 and 25 μM with “C”.
Usually EC50 stands for the concentration needed to bring the measured effect to its halfway point. On to `O=C(CSc1nc2ccccc2s1)N1CCCCC1` [Compound 41, 2-(Benzothiazol-2-ylsulfanyl)-1-piperidin-1-yl-ethanone], for which the EC50 is > 25 µM.
Turning to `CC1CCN(C(=O)CSc2nc3ccccc3[nH]2)CC1` [Compound 44, 2-(1H-Benzoimidazol-2-ylsulfanyl)-1-(4-methyl-piperidin-1-yl)-ethanone], the EC50 was > 25 µM.
As for `O=C(CSc1nc2ccccc2[nH]1)N1CCN(c2ccccc2)CC1` [Compound 46, 2-(1H-Benzoimidazol-2-ylsulfanyl)-1-(4-phenyl-piperazin-1-yl)-ethanone], the EC50 was > 25 µM.
On the same count and under the same terms, the figure for `O=C(O)c1ccc2oc(SCC(=O)N3CCCCC3)nc2c1` [Compound 48, 2-(2-oxo-2-piperidin-1-yl-ethylsulfanyl)-benzooxazole-5-carboxylic acid] is > 25 µM; for `O=C(CSc1nnc(CSc2nc3ccccc3s2)o1)NC1CCCCC1` [Compound 53, 2-[5-(Benzothiazol-2-ylsulfanylmethyl)-[1,3,4]oxadiazol-2-ylsulfanyl]-N-cyclohexyl-acetamide] it is > 25 µM.
Same read-out and setting: next, `CCC(=O)Nc1ccc2nc(SCC(=O)N3CCN(c4ccccc4)CC3)sc2c1` [Compound 54, N-{2-[2-oxo-2-(4-phenyl-piperazin-1-yl)-ethylsulfanyl]-benzothiazol-6-yl}-propionamide]: > 25 µM.
In the case of `Nc1ccc2nc(SCC(=O)N3CCCC3)sc2c1` [Compound 59, 2-(6-Amino-benzothiazol-2-ylsulfanyl)-1-pyrrolidin-1-yl-ethanone], the EC50 was > 25 µM.
Consider `O=C1CC(N2CCN(c3nc4ccccc4s3)CC2)C(=O)N1c1ccc(F)cc1` (stereo not drawn) [Compound 60, 3-(4-Benzothiazol-2-yl-piperazin-1-yl)-1-(4-fluoro-phenyl)-pyrrolidine-2,5-dione], for which the EC50 is > 25 µM.
As to `NC(=O)C1CCN(C(=O)CSc2nc3ccccc3s2)CC1` [Compound 66, 1-[2-(Benzothiazol-2-ylsulfanyl)-acetyl]-piperidine-4-carboxylic acid amide], the concentration giving a half-maximal response (EC50) was > 25 µM.
For the compound `NC(=O)C1CCN(C(=O)CSc2nc3ccccc3[nH]2)CC1` [Compound 68, 1-[2-(1H-Benzoimidazol-2-ylsulfanyl)-acetyl]-piperidine-4-carboxylic acid amide], the half-maximal effective concentration (EC50) is > 25 µM.
For the compound `CCn1c(SCC(=O)N2CCC(C(N)=O)(N3CCCCC3)CC2)nnc1-c1ccccc1` [Compound 69, 1′-[2-(4-Ethyl-5-phenyl-4H-[1,2,4]triazol-3-ylsulfanyl)-acetyl]-[1,4′]bipiperidinyl-4′-carboxylic acid amide], the EC50 was > 25 µM.
`NC(=O)C1(N2CCCCC2)CCN(C(=O)CSc2nc3ccccc3[nH]2)CC1` [Compound 70, 1′-[2-(1H-Benzoimidazol-2-ylsulfanyl)-acetyl]-[1,4′]bipiperidinyl-4′-carboxylic acid amide]: the EC50 was > 25 µM.

Staying with this test, now noted: Dengue virus; Dengue-2 strain New Guinea C, Vero cells, MOI 0.1, harvested 48 hours post infection, viral yield; read-out: Activity (anti-dengue 2 viral activity, EC50).
For `O=C(Nc1ccc2nc(SCC(=O)N3CCOCC3)sc2c1)C1CCCCC1` [Compound 32, Cyclohexanecarboxylic acid [2-(2-morpholin-4-yl-2-oxo-ethylsulfanyl)-benzothiazol-6-yl]-amide], the EC50 was > 25 µM.
For the compound `Cn1ccnc1SCC(=O)Nc1ccc2nc(SCC(=O)N3CCOCC3)sc2c1` [Compound 33, 2-(1-Methyl-1H-imidazol-2-ylsulfanyl)-N-[2-(2-morpholin-4-yl-2-oxo-ethylsulfanyl)-benzothiazol-6-yl]-acetamide], the EC50 was > 25 µM.
In the case of `O=C(CSc1nc2ccccc2s1)Nc1ccc2nc(SCC(=O)N3CCOCC3)sc2c1` [Compound 34, 2-(Benzothiazol-2-ylsulfanyl)-N-[2-(2-morpholin-4-yl-2-oxo-ethylsulfanyl)-benzothiazol-6-yl]-acetamide], the EC50 was > 25 µM.
With `O=C(CSc1nnc(-c2ccccc2)n1-c1ccccc1)Nc1ccc2nc(SCC(=O)N3CCOCC3)sc2c1` [Compound 35, 2-(4,5-Diphenyl-4H-[1,2,4]triazol-3-ylsulfanyl)-N-[2-(2-morpholin-4-yl-2-oxo-ethylsulfanyl)-benzothiazol-6-yl]-acetamide], the EC50 is > 25 µM.
As for `Cn1c(Cc2cccc3ccccc23)nnc1SCC(=O)Nc1ccc2nc(SCC(=O)N3CCOCC3)sc2c1` [Compound 36, 2-(4-Methyl-5-naphthalen-1-ylmethyl-4H-[1,2,4]triazol-3-ylsulfanyl)-N-[2-(2-morpholin-4-yl-2-oxo-ethylsulfanyl)-benzothiazol-6-yl]-acetamide], the EC50 is > 25 µM.
For `Cn1c(SCC(=O)Nc2ccc3nc(SCC(=O)N4CCOCC4)sc3c2)nnc1-c1ccccc1` [Compound 37, 2-(4-Methyl-5-phenyl-4H-[1,2,4]triazol-3-ylsulfanyl)-N-[2-(2-morpholin-4-yl-2-oxo-ethylsulfanyl)-benzothiazol-6-yl]-acetamide], the EC50 was > 25 µM.
On the same count and under the same terms, the figure for `O=C(Cc1cccc2ccccc12)Nc1ccc2nc(SCC(=O)N3CCOCC3)sc2c1` [Compound 38, N-[2-(2-Morpholin-4-yl-2-oxo-ethylsulfanyl)-benzothiazol-6-yl]-2-naphthalen-1-yl-acetamide] is > 25 µM.
Consider `CCOc1ccc2nc(SCC(=O)N3CCN(c4nc5ccccc5s4)CC3)sc2c1` [Compound 39, 1-(4-Benzothiazol-2-yl-piperazin-1-yl)-2-(6-ethoxy-benzothiazol-2-ylsulfanyl)-ethanone], for which the EC50 was > 25 µM.
Still for that read-out and setting: the figure for `Nc1ccc2nc(SCC(=O)N3CCN(c4nc5ccccc5s4)CC3)sc2c1` [Compound 40, 2-(6-Amino-benzothiazol-2-ylsulfanyl)-1-(4-benzothiazol-2-yl-piperazin-1-yl)-ethanone] is > 25 µM; for `O=C(CSc1nc2ccccc2[nH]1)N1CCOCC1` [Compound 42, 2-(1H-Benzoimidazol-2-ylsulfanyl)-1-morpholin-4-yl-ethanone] it is > 25 µM.
Turning to `O=C(CSc1nc2ccccc2[nH]1)N1CCCCCC1` [Compound 43, 1-Azepan-1-yl-2-(1H-benzoimidazol-2-ylsulfanyl)-ethanone], the EC50 is > 25 µM.
In the case of `O=C(CSc1nc2ccccc2[nH]1)N1CCCC1` [Compound 45, 2-(1H-Benzoimidazol-2-ylsulfanyl)-1-pyrrolidin-1-yl-ethanone], the EC50 was > 25 µM.
For `O=C(CSc1nc2ccccc2o1)N1CCc2ccccc2C1` [Compound 47, 2-(Benzooxazol-2-ylsulfanyl)-1-(3,4-dihydro-1H-isoquinolin-2-yl)-ethanone], the EC50 was > 25 µM.
For the compound `O=C(CSc1nc2ccc([N+](=O)[O-])cc2s1)N1CCCCC1` [Compound 49, 2-(6-Nitro-benzothiazol-2-ylsulfanyl)-1-piperidin-1-yl-ethanone], the EC50 is > 25 µM.
`O=C(CSc1nc2ccccc2s1)N1CCN(c2nc3ccccc3s2)CC1` [Compound 50, 1-(4-Benzothiazol-2-yl-piperazin-1-yl)-2-(benzothiazol-2-ylsulfanyl)-ethanone]: the EC50 is > 25 µM.
Regarding `O=C(CSc1nc2ccccc2n1-c1ccccc1)N1CCN(c2ccccc2)CC1` [Compound 51, 2-(1-Phenyl-1H-benzoimidazol-2-ylsulfanyl)-1-(4-phenyl-piperazin-1-yl)-ethanone], the EC50 is > 25 µM.
For the compound `O=C(CSc1nc2ccc([N+](=O)[O-])cc2s1)N1CCN(c2ccccc2)CC1` [Compound 52, 2-(6-Nitro-benzothiazol-2-ylsulfanyl)-1-(4-phenyl-piperazin-1-yl)-ethanone], the EC50 is > 25 µM.
For the compound `O=C(CSc1nc2ccc([N+](=O)[O-])cc2s1)N1CCCC1` [Compound 55, 2-(6-Nitro-benzothiazol-2-ylsulfanyl)-1-pyrrolidin-1-yl-ethanone], the EC50 is > 25 µM.
On to `Cc1ccc(C(=O)Nc2ccc3nc(SCC(=O)N4CCCCC4)sc3c2)cc1` [Compound 56, 4-Methyl-N-[2-(2-oxo-2-piperidin-1-yl-ethylsulfanyl)-benzothiazol-6-yl]-benzamide], for which the EC50 was > 25 µM.
Take `CC(=O)Nc1ccc2nc(SCC(=O)N3CCN(c4ccccc4)CC3)sc2c1` [Compound 57, N-{2-[2-Oxo-2-(4-phenyl-piperazin-1-yl)-ethylsulfanyl]-benzothiazol-6-yl}-acetamide]: the 50% effective concentration (EC50) is > 25 µM.
Regarding `O=C(Nc1ccc2nc(SCC(=O)N3CCCC3)sc2c1)c1ccc(Cl)cc1` [Compound 58, 4-Chloro-N-[2-(2-oxo-2-pyrrolidin-1-yl-ethylsulfanyl)-benzothiazol-6-yl]-benzamide], the EC50 was > 25 µM.
As to `O=C(CSc1nc2ccccc2[nH]1)N1CCc2ccccc2C1` [Compound 61, 2-(1H-Benzoimidazol-2-ylsulfanyl)-1-(3,4-dihydro-1H-isoquinolin-2-yl)-ethanone], the EC50 is > 25 µM.
Same read-out and setting: the figure for `CCN(CC)C(=O)CSc1nc2cc(C)ccc2[nH]1` [Compound 62, N,N-Diethyl-2-(5-methyl-1H-benzoimidazol-2-ylsulfanyl)-acetamide] is > 25 µM; for `O=C(CSc1nc2ccccc2s1)N1CCCC1` [Compound 63, 2-(Benzothiazol-2-ylsulfanyl)-1-pyrrolidin-1-yl-ethanone] it is > 25 µM.
With `COc1ccc(C(=O)Nc2ccc3nc(SCC(=O)N4CCOCC4)sc3c2)cc1OC` [Compound 64, 3,4-Dimethoxy-N-[2-(2-morpholin-4-yl-2-oxo-ethylsulfanyl)-benzothiazol-6-yl]-benzamide], the EC50 was > 25 µM.
Regarding `O=C(Nc1ccc2nc(SCC(=O)N3CCCC3)sc2c1)c1ccccc1Br` [Compound 65, 2-Bromo-N-[2-(2-oxo-2-pyrrolidin-1-yl-ethylsulfanyl)-benzothiazol-6-yl]-benzamide], the EC50 was > 25 µM.
Same read-out and setting: next, `NC(=O)C1CCN(C(=O)CSc2nc3ccccc3o2)CC1` [Compound 67, 1-[2-(Benzooxazol-2-ylsulfanyl)-acetyl]-piperidine-4-carboxylic acid amide]: > 25 µM.
